Test results as given in article PMC12494543, “Identification of ALKBH6 as a nucleotide demethylase with a distinct substrate preference” (The Journal of Biological Chemistry, 2025).

Columns and labels:
ALKBH6 [1] = target: T1, ALKBH6 (Homo sapiens, UniProt Q3KRA9); assay: FDH-coupled formaldehyde release demethylation assay; format: biochemical; details: me-dNMPs as substrate
T1 construct: His-tag; made in house
Description: NMPs including 1meAMP (Jena Bioscience, NU-1029-1,) 7meGMP (Jena Bioscience, NU-1135S), 6me-AMP (Sigma, M2780) were purchased. N-methylated deoxy-NMPs were prepared by methylating chemically synthesized 30-mer oligonucleotide containing either dA, dG, dC, or dT by MMS (5%, v/v) (0.59 M) MMS (Sigma, 129925) and purified as described before ([17]). The oligonucleotides were digested with nuclease P1 (NEB) at 37 °C for 4 h to produce deoxy-NMPs. After heat inactivating the nuclease, dNMPs were purified by HPLC and used for the demethylation reaction. N-methylated NMPs were purified similarly, using RNA as the starting material. For the demethylation reaction, ALKBH6 (1 μM) and me-dNMPs (1 mM) were mixed in the dioxygenase reaction buffer and incubated at 37 °C for 30 min. Formaldehyde release was detected by FDH-coupled DNA repair assay as described before ([32], [33]). Briefly, 1 mM NAD+ and 0.01 U FDH were added to the dioxygenase reaction buffer containing methylated nucleotide and ALKBH6. NADH generated was detected by the characteristic absorption peak (340 nm) using a 96-well multimode reader (Synergy, Biotek Instrument). Formaldehyde production was quantified from the standard curve and the initial velocities were determined using various substrate concentrations. The results were plotted and analyzed using GraphPad Prism.

ALKBH6 [2] = target: T1, ALKBH6; assay: Uncoupled succinate production (SucCD colorimetric assay); format: biochemical; details: CoCl2 20 μM, no substrate
Description: The uncoupled succinate production reaction was set up in two steps as described before ([54]). In the initial step, WT ALKBH6 (5–20 μM) was incubated in dioxygenase reaction buffer (20 mM Hepes, pH 8.0, 0.2 mM 2OG, 2 mM ascorbate, 5 μM Fe(NH4)2(SO4)2) for 1 h at 37 °C to form succinate. Then the reaction mixture (50 μl) was mixed with recombinant sucCD (1 μM) in SucCD reaction buffer (2 mM MES, pH 6.5, 5 mM ATP 3.258 mM CoA, 50 mM MgCl2) and further incubated for 30 min at 37 °C. Finally, molybdate solution was added for colorimetric detection and the succinate concentration was detected from the standard curve. For inhibition, CoCl2 (20 μM) was used. The results were plotted and analyzed using GraphPad Prism (www.graphpad.com).

T1 sequence (Q3KRA9 whole entry): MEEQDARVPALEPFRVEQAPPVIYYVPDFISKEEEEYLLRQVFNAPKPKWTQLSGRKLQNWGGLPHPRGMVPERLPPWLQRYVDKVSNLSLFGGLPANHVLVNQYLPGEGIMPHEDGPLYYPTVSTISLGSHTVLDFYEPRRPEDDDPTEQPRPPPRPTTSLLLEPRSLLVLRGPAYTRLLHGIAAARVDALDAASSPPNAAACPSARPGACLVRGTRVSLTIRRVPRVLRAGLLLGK

With [Cl][Co][Cl] [Co(II), cobalt chloride, reference compound] the “inhibition of ALKBH6-mediated demethylation” value (ALKBH6 [1]) was “completely inhibited” and the “inhibition of uncoupled succinate production” value (ALKBH6 [2]) was “inhibited”.
